In patent EP0334853B1, “SOFT STEROIDS HAVING ANTI-INFLAMMATORY ACTIVITY” (BODOR, Nicholas S., priority 1987, dated 1989):

tested on: skin of the flexor surface of the forearm; test: Topical vasoconstriction test (blanching, method of McKenzie and Stoughton); type: in vivo; conditions: 0.03M solution in acetone/isopropylmyristate 90:10, 0.05 milliliter on 1 cm patch, occluded; patch removed after about six hours, blanching score one hour later; average of duplicate, except entries marked ** (duplicate experiment not conducted)
Description: TOPICAL VASOCONSTRICTION TEST
A topical vasoconstriction test was conducted using the general method of McKenzie, A.W. and R.B. Stoughton, Arch. Dermatol, 86, (1962), 608-10. The topical vasoconstriction test was done in order to evaluate the anti-inflammatory potency of the novel compounds of the present invention. A 0.03M solution of the test compound in acetone/isopropylmyristate 90:10 volume/volume was prepared. An aliquot of 0.05 milliliter was applied to a circular patch, one centimeter in diameter, which was in turn applied against the skin of the flexor surface of the forearm (previously cleansed with ethanol 95% and dried). This application was occluded with a water-impervious film. The patch was removed after about six hours and the blanching score was evaluated one hour later. Two control compounds were used at the same time and under the same conditions. The control compounds were hydrocortisone 17-valerate and cortienic acid 17-ethylcarbonate chloromethylester. The experiment was made in duplicate and the average estimation values for the blanching activity are reported in Table I. The left column of Table I indicates the 17α-substituent of the structure: [drawing 44]

Molecule	BLANCHING STUDIES Value (average estimation values for the blanching activity)
CCO[C@]1(C(=O)OCCl)CC[C@H]2[C@@H]3CCC4=CC(=O)CC[C@]4(C)[C@H]3[C@@H](O)C[C@@]21C [-OCH₂H₅, chloromethyl 11β-hydroxy-17α-ethoxyandrost-4-en-3-one-17β-carboxylate]	0.75
CCCO[C@]1(C(=O)OCCl)CC[C@H]2[C@@H]3CCC4=CC(=O)CC[C@]4(C)[C@H]3[C@@H](O)C[C@@]21C [-OC₃H₇, Chloromethyl 11β-hydroxy-17α-propoxyandrost-4-en-3-one-17β-carboxylate]	1 **
CCCCO[C@]1(C(=O)OCCl)CC[C@H]2[C@@H]3CCC4=CC(=O)CC[C@]4(C)[C@H]3[C@@H](O)C[C@@]21C [-OC₄H₉, Chloromethyl 17α-butoxy-11β-hydroxyandrost-4-en-3-one-17β-carboxylate]	0.5
CCOC(=O)O[C@]1(C(=O)OCCl)CC[C@H]2[C@@H]3CCC4=CC(=O)CC[C@]4(C)[C@H]3[C@@H](O)C[C@@]21C [carbonate, cortienic acid 17-ethylcarbonate chloromethylester, reference compound]	1.75
hydrocortisone 17-valerate [reference compound]	1.5

same assay, conditions: previous study, no details given

Molecule	activity (blanching), determined in a previous study
CO[C@]1(C(=O)OCCl)CC[C@H]2[C@@H]3CCC4=CC(=O)CC[C@]4(C)[C@H]3[C@@H](O)C[C@@]21C [-OCH₃, chloromethyl 11β-hydroxy-17α-methoxyandrost-4-en-3-one-17β-carboxylate]	* The 17-methoxy homologue was determined in a previous study to have low activity.
